Series [1] concerns Plasmodium berghei. Description: Antimalarial activity Plasmodium berghei ANKA infected in C57BL/6J mouse assessed as mouse survival at 6 mg/kg, po administered as single dose combined with 18 mg/kg mefloquine hydrochloride. The series is classed as functional.
Series [2] relates to Plasmodium berghei. Description: Antimalarial activity Plasmodium berghei ANKA infected in C57BL/6J mouse assessed as suppression of parasitemia at 6 mg/kg, po administered as single dose combined with 18 mg/kg mefloquine hydrochloride measured on day 3 after innfection. The series is classed as functional.
Series [3] relates to Plasmodium. Nature of the series: Antimalarial activity Plasmodium. It counts as functional.
Series [4] in a line: Lipophilicity, logP of the compound. The series is classed as physicochemical. The following applies: octanol/water.
Series [5] can be described thus: Stability in pH 2 in acetonitrile and water at 37 degC. The series is classed as physicochemical. The following applies: acetonitrile and water at pH 2, pH 2; read-out: Stability (converted).

`C[C@H]1[C@@H](CC(CO)C[C@H]2O[C@@H]3O[C@@]4(C)CC[C@H]5[C@H](C)CC[C@@H]([C@H]2C)[C@@]35OO4)O[C@@H]2O[C@@]3(C)CC[C@H]4[C@H](C)CC[C@@H]1[C@@]24OO3` (stereo not given in full): the Survival in series [1] was 26 days. Further, the Activity in series [2] is listed as over 99.9%.

With `C[C@H]1[C@@H](CC(COC(=O)c2ccncc2)C[C@H]2O[C@@H]3O[C@@]4(C)CC[C@H]5[C@H](C)CC[C@@H]([C@H]2C)[C@@]35OO4)O[C@@H]2O[C@@]3(C)CC[C@H]4[C@H](C)CC[C@@H]1[C@@]24OO3`, in series [1], the Survival amounted to 24.3 days. For the same compound, inhibition in series [3] was half-maximal at 1.7 nM (IC50). Also, in series [4] (read-out: logP), the logP (commonly a log measure of how a compound divides between an organic and an aqueous phase) came to 7.8. The Activity in series [2] is recorded as over 99.9%.

In the case of `C[C@H]1[C@@H](CC(COC(=O)c2ccnc(Cl)c2Cl)C[C@H]2O[C@@H]3O[C@@]4(C)CC[C@H]5[C@H](C)CC[C@@H]([C@H]2C)[C@@]35OO4)O[C@@H]2O[C@@]3(C)CC[C@H]4[C@H](C)CC[C@@H]1[C@@]24OO3`, the Survival in series [1] worked out at 26 days. The lipophilicity (logP) in series [4] came to 9.2. The Activity in series [2] was over 99.9%.

Take `C[C@H]1[C@@H](CC(COC(=O)c2cc(Cl)nc(Cl)c2)C[C@H]2O[C@@H]3O[C@@]4(C)CC[C@H]5[C@H](C)CC[C@@H]([C@H]2C)[C@@]35OO4)O[C@@H]2O[C@@]3(C)CC[C@H]4[C@H](C)CC[C@@H]1[C@@]24OO3`: the Survival in series [1] worked out at 25.8 days. The same compound showed a log partition coefficient (logP) in series [4] of 9.5. In series [2], the Activity is over 99.9%.

Consider `Cc1cc(C(=O)OCC(C[C@H]2O[C@@H]3O[C@@]4(C)CC[C@H]5[C@H](C)CC[C@@H]([C@H]2C)[C@@]35OO4)C[C@H]2O[C@@H]3O[C@@]4(C)CC[C@H]5[C@H](C)CC[C@@H]([C@H]2C)[C@@]35OO4)cc(Cl)n1`, for which the Survival in series [1] was determined as 28.5 days. In series [4], this compound yielded a logP of 9.5. In addition, the Activity in series [2] was over 99.9%.

As for `Cc1cc(C(=O)OCC(C[C@H]2O[C@@H]3O[C@@]4(C)CC[C@H]5[C@H](C)CC[C@@H]([C@H]2C)[C@@]35OO4)C[C@H]2O[C@@H]3O[C@@]4(C)CC[C@H]5[C@H](C)CC[C@@H]([C@H]2C)[C@@]35OO4)cc(C)n1`, in series [1], the Survival was 25.8 days. Further, the logP in series [4] (read-out: logP) stood at 8.1. The Activity in series [2] is reported as over 99.9%.

Turning to `C[C@H]1[C@@H](CC(COC(=O)c2cc(F)nc(F)c2)C[C@H]2O[C@@H]3O[C@@]4(C)CC[C@H]5[C@H](C)CC[C@@H]([C@H]2C)[C@@]35OO4)O[C@@H]2O[C@@]3(C)CC[C@H]4[C@H](C)CC[C@@H]1[C@@]24OO3`, the Survival in series [1] stood at 23.5 days. In addition, the logP in series [4] (read-out: logP) is 8.9. The Activity in series [2] is reported as over 99.9%.

`C[C@H]1[C@@H](CC(COC(=O)c2cc(F)cc(F)c2)C[C@H]2O[C@@H]3O[C@@]4(C)CC[C@H]5[C@H](C)CC[C@@H]([C@H]2C)[C@@]35OO4)O[C@@H]2O[C@@]3(C)CC[C@H]4[C@H](C)CC[C@@H]1[C@@]24OO3`: in series [1], the Survival amounted to 29 days. Further, in series [4], the lipophilicity (logP) was found to be 9.3. Moreover, the Activity in series [2] was over 99.9%.

Regarding `C[C@H]1[C@@H](CC(COC(=O)c2cc(Cl)cc(Cl)c2)C[C@H]2O[C@@H]3O[C@@]4(C)CC[C@H]5[C@H](C)CC[C@@H]([C@H]2C)[C@@]35OO4)O[C@@H]2O[C@@]3(C)CC[C@H]4[C@H](C)CC[C@@H]1[C@@]24OO3`, in series [1], the Survival stood at 30 days. For the same compound, the half-life in series [5] was 96 h. Also, the logP in series [4] worked out at 10.2. Moreover, the Activity in series [2] is over 99.9%.

As for `C[C@H]1[C@@H](CC(COC(=O)c2ccc(Cl)nc2Cl)C[C@H]2O[C@@H]3O[C@@]4(C)CC[C@H]5[C@H](C)CC[C@@H]([C@H]2C)[C@@]35OO4)O[C@@H]2O[C@@]3(C)CC[C@H]4[C@H](C)CC[C@@H]1[C@@]24OO3`, the Survival in series [1] worked out at 30 days. The half-life in series [5] is 96 h. The compound further came in with a log partition coefficient (logP) in series [4] of 9.5. Moreover, the Activity in series [2] was over 99.9%.

Regarding `CO[C@H]1O[C@@H]2O[C@@]3(C)CC[C@H]4[C@H](C)CC[C@@H]([C@H]1C)[C@@]24OO3` [ARTEMETHER], the Survival in series [1] was determined as 20.8 days. Moreover, in series [2], the Activity was over 99.9%.

As to `C[C@@H]1CC[C@H]2[C@@H](C)C(=O)O[C@@H]3O[C@@]4(C)CC[C@@H]1[C@]32OO4` [ARTEMISININ], the midpoint of inhibition in series [3], the IC50, lay at 9 nM.

The values are drawn from ChEMBL document CHEMBL3352133, “Antimalarial chemotherapy: orally curative artemisinin-derived trioxane dimer esters” (Bioorg Med Chem Lett, 2015).
